# What was measured:
# human ETA receptors = biological target: T1, human ETA receptors (Homo sapiens, UniProt P25101); assay: Endothelin binding inhibition, Binding Test #1: inhibition of binding to ETA receptors (TE 671 cell membranes); conditions: relative to N-(4-chloro-3-methyl-5-isoxazolyl)-2-{[3,4-(methylenedioxy)-6-methylphenyl)acetyl]-thiophene-3-sulfonamide (= 1.0)
# T1 construct: endogenous in cells; host or cells: TE 671 cells (ATCC HTB 139), membrane preparation
# T1 sequence (P25101 21-427): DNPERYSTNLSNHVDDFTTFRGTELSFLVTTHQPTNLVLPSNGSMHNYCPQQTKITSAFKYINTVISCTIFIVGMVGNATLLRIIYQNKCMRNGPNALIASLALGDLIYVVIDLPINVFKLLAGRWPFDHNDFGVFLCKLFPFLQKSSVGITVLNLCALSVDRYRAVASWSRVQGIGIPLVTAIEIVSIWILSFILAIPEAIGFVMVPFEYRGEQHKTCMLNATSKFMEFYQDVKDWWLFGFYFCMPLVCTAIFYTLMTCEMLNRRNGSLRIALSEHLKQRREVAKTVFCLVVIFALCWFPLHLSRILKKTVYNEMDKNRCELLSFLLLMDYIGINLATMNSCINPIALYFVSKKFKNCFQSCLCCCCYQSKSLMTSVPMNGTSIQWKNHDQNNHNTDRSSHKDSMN
# Excerpt: Compounds that are potential endothelin antagonists are identified by testing their ability to compete with ^125I-labeled ET-1 for binding to human ETA receptors or ETB receptors present on isolated cell membranes. The effectiveness of the test compound as an antagonist or agonist of the biological tissue response of endothelin can also be assessed by measuring the effect on endothelin induced contraction of isolated rat thoracic aortic rings. The ability of the compounds to act as antagonists or agonists for ETB receptors can be assess by testing the ability of the compounds are to inhibit endothelin-1 induced prostacyclin release from cultured bovine aortic endothelial cells.
# A. Endothelin Binding Inhibition—Binding Test #1: Inhibition of Binding to ETA Receptors
# TE 671 cells (ATCC Accession No. HTB 139) express ETA receptors. These cells were grown to confluence in T-175 flasks. Cells from multiple flasks were collected by scraping, pooled and centrifugedfor 10 min at 190×g. The cells were resuspended in phosphate buffered saline (PBS) containing 10 mM EDTA using a Tenbroeck homogenizer. The suspension was centrifuged at 4° C. at 57,800×g for 15 min, the pellet was resuspended in 5 ml of buffer A (5 mM HEPES buffer, pH 7.4 containing aprotinin (100 KIU/ml)) and then frozen and thawed once. 5 ml of Buffer B (5 mM HEPES Buffer, pH 7.4 containing 10 mM MnCl2 and 0.001% deoxyribonuclease Type 1) was added, the suspension mixed by inversion and then incubated at 37° C. for 30 minutes. The mixture was centrifuged at 57,800×g as described above, the pellet washed twice with buffer A and then resuspended in buffer C (30 mM HEPES buffer, pH 7.4 containing aprotinin (100 KIU/ml) to give a final protein concentration of 2 mg/ml and stored at −70° C. until use.
# The membrane suspension was diluted with binding buffer (30 mM HEPES buffer, pH 7.4 containing 150 mM NaCl, 5 mM MgCl2, 0.5% Bacitracin) to a concentration of 8 μg/50 μl. ^125I-endothelin-1 (3,000 cpm, […]) was added to 50 μL of either: (A) endothelin-1 (for non specific binding) to give a final concentration 80 nM); (B) binding buffer (for total binding); or (C) a test compound (final concentration 1 nM to 100 μM). The membrane suspension (50 μL), containing up to 8 μg of membrane protein, was added to each of (A), (B), or (C). Mixtures were shaken, and incubated at 4° C. for 16-18 hours, and then centrifuged at 4° C. for 25 min at 2,500×g. Alternatively, the incubation was conducted at 24° C. […] This, must be kept in mind when comparing IC50 concentrations among compounds provided herein.
# The supernatant, containing unbound radioactivity, was decanted and the pellet counted on a Genesys multiwell gamma counter. The degree of inhibition of binding (D) was calculated according to the following equation: [formula]
# Each test was generally performed in triplicate.
# [1] = test system: rats exposed to acute hypoxia; assay: Acute hypoxia model, mean pulmonary arterial pressure (MPAP) increase; conditions: in vivo model, rat
# Procedure: The chamber was gassed by adding N2 to the chamber intermittently from a liquid N2 reservoir. A baralyme (Allied Health Care Products, St. Louis, Mo., USA) CO2 scrubber kept the CO2 concentration <0.2%. Relative humidity within the chamber was kept <70% with anhydrous CaSO4. Boric acid was used to keep NH3 levels within the chamber at a minimum. See, Tilton et al. (2000) Pulm. Pharm. Ther. 13:87-97. In the initial experiment, effects of a test compound were assessed on mean pulmonary arterial pressure (MPAP) of rats subsequently exposed to acute hypoxia 90 min in duration. […] All catheters were connected to polyethylene (PE 20) tubing, and were exteriorized at the back of the neck by a stainless steel wire (0.018 in. diam) tunneled subcutaneously. Two days later, MPAP was recorded through the femoral and pulmonary arterial cannulas via transducers coupled to a polygraph recorder. […] Pulmonary pressure rapidly returned toward baseline values when this group was returned to room air at the end of the experiment.
# [2] = test system: DOCA-salt hypertensive rat; assay: Deoxycorticosterone acetate (DOCA)-salt hypertensive rat model; conditions: in vivo
# Procedure: Selected compounds disclosed herein have been tested for activity in the deoxycorticosterone acetate (DOCA)-salt hypertensive rat model. To perform these tests, silastic MDX4-4210 elastomer implants containing 47 mg (DOCA) were prepared according to the method of Ornmsbee et al. ((1973) the J. Pharm. Sci. 62:255-257). Briefly, DOCA is incorporated into silicon rubber implants for sustained release. To prepare the implants the DOCA is incorporated into unpolymerized silicone rubber, catalyst is added and the mixture is cast in a hemicylindrical shape.
# Sprague Dawley rats (7-8 weeks old) were unilaterally nephrectomized under ketamine anesthesia and a DOCA-implant was placed on the left lateral dorsal abdomen of the animal. The rats were allowed to recover for three weeks. During recovery they were permitted free access to normal rat chow and 0.9% NaCl drinking solution in place of drinking water. The rats develop hypertension within 3 weeks. […]
# On the day of experimentation, catheters were inserted under brevital anesthesia into the right femoral artery for measurement of blood pressure, and into the right femoral vein for administration of a selected compound. The animals were placed in a restrainer and allowed to recover for a minimum of 60 min or until a steady mean arterial blood pressure was recorded. […] Blood pressure was recorded continuously for a further 10 hrs.
Compound,ETA ACTIVITY (ETA antagonist activity relative to reference compound) (human ETA receptors),"Acute Hypoxia: dose to achieve 50% inhibition of mean pulmonary artery pressure increase ([1]; listed as N-(2-acetyl-4,6-dimethylphenyl)-3-{[(3,4 dimethyl-5-isoxazolyl)amino]-sulfonyl}-)","Acute Hypoxia: dose to achieve 50% inhibition of mean pulmonary artery pressure increase ([1]; listed as N-(2-acetyl-4,6-dimethylphenyl)-3-{[(3,4 dimethyl-5-isoxazolyl)amino]sulfonyl}-2)",effect on blood pressure in the hypertensive rat model [2],melting point,Acute Hypoxia: dose to achieve 50% inhibition of mean pulmonary artery pressure increase [1]
"CC(=O)c1cc(C)cc(C)c1NC(=O)c1sccc1S(=O)(=O)Nc1onc(C)c1C [Compound 7, N-(2-acetyl-4,6-dimethylphenyl)-3-{[(3,4 dimethyl-5-isoxazolyl)amino]sulfonyl}-2-thiophenecarboxamide]",18.1,1 mg/kg,approximately 1 mg/kg,effective in decreasing blood pressure,,
"Cc1cc(C)c(NC(=O)c2sccc2S(=O)(=O)Nc2onc(C)c2Cl)c(Cl)c1 [Compound 34, N-(2-chloro-4,6-dimethylphenyl)-3-{[(4-chloro-3-methyl-5-isoxazolyl)amino]sulfonyl}2-thiophenecarboxamide]",20.7,,,,174 to 176 °C,
"Cc1cc(C)c(NC(=O)c2sccc2S(=O)(=O)Nc2onc(C)c2Cl)c(S(C)(=O)=O)c1 [Compound 42, 3-{[(4-chloro-3-methyl-5-isoxazolyl)amino]sulfonyl)-N-[2,4-dimethyl-6-(methylsulfonyl)phenyl]-2-thiophenecarboxamide]",64.1,,,,208 to 210 °C,
"Cc1cc2c(cc1CC(=O)c1sccc1S(=O)(=O)Nc1onc(C)c1Cl)OCO2 [N-(4-chloro-3-methyl-5-isoxazolyl)-2-{[3,4-(methylenedioxy)-6-methylphenyl)acetyl]-thiophene-3-sulfonamide, reference compound]",1.0,,,,,2.5 mg/kg
